Results on six molecules are retold here after patent US5386030A, “Antiviral (phosphonomethoxy)methoxy purine/pyrimidine derivatives” (Institute of Organic Chemistry and Biochemistry of the …, priority 1993, dated 1995).

The subject of assay [1] is HCMV. Description: plaque reduction assay, HCMV strain AD169 (MRC-5 cells). The assay is classed as cell-based, Human cytomegalovirus (strain AD169). The settings on record: for IC50: read-out: ID50 HCMV. The protocol: (§1) The compounds are tested for activity against the herpes simplex stains using a stock solution of each compound freshly prepared. Appropriate dilution of each compound are made in 10% EMEM before usage. The antiviral efficacy of each compound is determined using the plaque reduction assay described above. Briefly, tissue culture 24-well plates, with approximately 50 plaque forming units of HSV per 0.1 ml, and the virus absorbed for 1 hour, with intermittent shaking. After removal of the inoculum, 1 ml of 10% EMEM containing two-fold dilutions of the appropriate drug are added in triplicates. Triplicate wells/plate receives no drug and are used as a virus control. After a 48-hour incubation period, at 37° C. in a 5% CO2 atmosphere, the overlay medium is removed, the cells are stained as described above, and plaques are counted. The counts of triplicate wells are averaged, and the number of plaques in the presence of each drug dilution are calculated.
Human cytomegalovirus (HCMV) (strain AD169) was grown and titered at 37° C. in human embryonic lung (diploid) cells, MRC-5. The activity of compounds against HCMV was determined by using the procedure for the plaque reduction assay described above.
(§2) The antiviral potency of the drug is determined by ID50, the drug concentration necessary to reduce the number of plaques by 50% of those in the virus control cultures.

For assay [2], the system named is MuLV. Description: UV-XC plaque assay, MuLV (SC-1 cells). The assay is classed as cell-based, murine leukemia virus. As to conditions: for IC50: Murine leukemia virus. The method, then: The compounds were evaluated for antiviral activity against murine leukemia virus (MuLV) strains using the UV-XC plaque assay (Rowe, et al., Virology, 42: 1136, 1970).
The MuLV strains were grown in feral mouse cells (SC-1) and used for antiviral tests using the UV-XC plaque assay. Briefly, SC-1 cells are grown as monolayers in 4-well tissue culture plates and inoculated with approximately 50-100 plaque forming units of MuLV in 0.5 ml of 5% EMEM containing 20 μg/ml DEAE/Dextran. After 1 hour adsorption, the inoculum is removed and 5 ml of 5% EMEM containing three-fold dilutions of the appropriate drug are added. Five days later, the cultures are UV-irradiated with an ultraviolet lamp and rat XC sarcoma cells are added to the cultures. Three-four days after UV-irradiation, the cell cultures are stained with Giemsa stain and the plaques are enumerated. Antiviral activity is expressed in terms of the reduction in the mean number of UV-XC plaques counted in the drug treated, virus-infected cultures compared with mean number of plaques counted in untreated, virus-infected control cultures.
as §2

Assay [3] concerns HSV-2. In words: plaque reduction assay, HSV-2 (vero cells). The assay is classed as cell-based, herpes simplex virus II. As to conditions: for IC50: 48 h. The protocol: (§3) Herpes simplex virus (HSV) strains were grown and titered at 37° C. in vero cells (African Green Monkey Kidney cells) and used for virus work before the tenth passage.
(§4) Cells were grown and maintained in Earle's Minimum Essential Medium (EMEM), Gibco Laboratories, supplemented with 0.75% sodium bicarbonate, 2 mM 1-glutamine, Pen-strep. and 5-10% fetal calf serum.
(§5) The titer of HSV strains is determined by a plaque titration method (Roizman and Roane, Virology, 115: 75-79, 1961). Tissue culture 24-well petri dishes are seeded with cells and used for assays when approximately 75% monolayer. Volumes (0.1 ml) of logarithmic dilutions of the virus strain are inoculated onto each of triplicate wells, and absorbed for one hour with intermittent shaking. The inoculum thereafter is removed, and 1 ml of 5-10% EMEM containing 0.3% human immune serum globulin is added. After a 48 hour incubation period at 37° C. in a 5% CO2 atmosphere, the overlay medium is removed and the cell sheets stained with Giemsa stain. The number of plaques is counted, the triplicate is averaged, and the number of plaque-forming units per ml is calculated.
as §1, §2

Assay [4] relates to HSV-1. Description: plaque reduction assay, HSV-1 (vero cells). The settings on record: for IC50: 48 h, read-out: ID50 HSV-1. The assay is classed as cell-based, herpes simplex virus I. The protocol:
as §3, §4, §5
as §1, with “calculated. […]” for “calculated.”

Assay [5] relates to herpes simples virus-2. Description: survival of mice inoculated with herpes simplex virus-2. The assay is classed as in vivo. The method, then: A preferred example of one of these compounds, known as (S)-HPMPA (Formula V) was disclosed by DeClercq, et al., in Nature, 323: 464-467 (1986) and earlier by Holy, et al, Nucleic Acids Research, Symposium Series No. 14, pp. 277-278 (1984). Phosphonate compounds which are HPMPA analogs are described in South African Patent 1987/8607. […] In a 21 day protocol 30% of a group of animals treated i.p. with 50 mg/kg/day of (S)-HPMPA survived. [drawing 5]

[6] abbreviates: SC1, Table 2, UV-XC plaque assay, SC-1 cells, read-out: ID50 MULV.
The mark [7] stands for this setting: Human alphaherpesvirus 2, Table 2, drug concentration reducing plaques by 50%, vero cells, read-out: ID50 HSV-2.
[8] abbreviates: Human betaherpesvirus 5, MRC5, 48 h, Table 2, strain AD169, MRC-5 cells.

Each structure is given as a SMILES string. ≈ marks a conversion by molar mass, not a printed value. Counter-ions that a name gives are not always drawn. Like-named read-outs stand apart in the source and are kept apart here. Bounds are passed on as bounds.

Consider `Nc1nc2c(ncn2COCCO)c(=O)[nH]1` [ACV, acyclovir, reference compound], for which the IC50 in assay [1] (Human betaherpesvirus 5, MRC5, 48 h, Table 1, strain AD169, MRC-5 cells) is 40 µg/mL (≈ 178 µM); in assay [2] (setting [6]), above 100 µg/mL; in assay [3] (Human alphaherpesvirus 2, Table 1, drug concentration reducing plaques by 50%, vero cells, read-out: ID50 HSV2), 0.7 µg/mL (≈ 3.11 µM); in assay [3] (setting [7]) it was 0.35 µg/mL (≈ 1.55 µM); in assay [4] (Human alphaherpesvirus 1, Table 1, drug concentration reducing plaques by 50%, vero cells), 0.6 µg/mL (≈ 2.66 µM).

In turn, `Nc1ncnc2c1ncn2C[C@@H](CO)OCP(=O)(O)O` [(S)-HPMPA] showed an animals survived in assay [5] (HSV-2, i.p., 50 mg/kg/day, 21 day protocol) of 30%. Moreover, the “activity in mice inoculated with herpes simplex virus-2 (in words)” value in assay [5] (HSV-2, in applicant's hands) is recorded as “only slightly active”.

For `Nc1nc2c(ncn2COC(CO)CO)c(=O)[nH]1` [DHPG, reference compound], the values for the IC50 in assay [1] (setting [8]), in assay [2] (setting [6]) and in assay [3] (setting [7]) were 0.4 µg/mL (≈ 1.57 µM), above 100 µg/mL and 0.2 µg/mL (≈ 0.784 µM), respectively.

As to `N.Nc1ncnc2c1ncn2OCOCP(=O)(O)O` [Compound 4, 9-[(Phosphonomethoxy)methoxy]adenine ammonium salt], the “activity against MuLV (in words)” value in assay [2] is listed as “good activity”. Further, the IC50 is 1.5 µg/mL in assay [2] (SC-1, read-out: ID50 against MuLV) and above 100 µg/mL in assay [3] (Human alphaherpesvirus 2, Vero, read-out: ID50 against HSV-2). Moreover, in assay [3], the “HSV-2 activity (in words)” value is listed as “little activity”.

As for `N.Nc1nc2c(ncn2OCOCP(=O)(O)O)c(=O)[nH]1` [Compound 14, 9-[(Phosphonomethoxy)methoxy]guanine ammonium salt], the IC50 is 0.2 µg/mL in assay [1] (Human betaherpesvirus 5, AD169, MRC5, 48 h); 1.3 µg/mL in assay [3] (Human alphaherpesvirus 2, Vero, read-out: ID50 HSV2); 2.2 µg/mL in assay [4] (Human alphaherpesvirus 1, Vero). Further, in assay [3], the “HSV-2 activity (in words)” value is reported as “comparable to acyclovir (ACV)”. The “HSV-1 activity (in words)” value in assay [4] (compared with ACV) is “comparable to acyclovir (ACV)”.

For the molecule `Nc1ncnc2c1ncn2OC(CO)OCP(=O)(O)O` (centres unmarked) [Compound 21, ammonium salt], the IC50 in assay [1] (setting [8]) is 1 µg/mL; in assay [2] (setting [6]), 1.5 µg/mL; in assay [3] (setting [7]) it was 2.6 µg/mL. Moreover, the “HCMV activity (in words)” value in assay [1] (compared with DHPG) is “comparable to DHPG”.
